Source: patent US10183943B2, “Heterocyclic compounds and their use in preventing or treating bacterial infections” (MUTABILIS, priority 2015, dated 2019)

Key:
SHV-1 = target: T1, SHV-1 (Klebsiella pneumoniae, UniProt P0AD64); assay: β-lactamase inhibitory activity, determination of IC50 (nitrocefin hydrolysis); assay type: biochemical; details: class (A); nitrocefin 200 μM, 30 min pre-incubation; read-out: IC50 β-lactamase SHV-1
T1 construct: made in house; host or cells: E. coli

[1] = tested on: E. coli 190317 (TEM-1, SHV-12, CTX-M-15, OXA-1); assay: microbe, parasite or virus in culture; assay type: cell-based; details: strain 190317
Experimental: (§1) Method 2: MIC of Compounds and Synergy with Ceftazidime Against Bacterial Isolates (Table 2 and 3)
(§2) Compounds of the present invention were assessed against genotyped bacterial strains alone or in combination with the β-lactam ceftazidime (CAZ). In the assays, MICs of said compounds, or of ceftazidime at fixed concentrations of said compounds were determined by the broth microdilution method according to the Clinical Laboratory Standards Institute (CLSI-M7-A7). Briefly, compounds alone according to the invention were prepared in DMSO and spotted (2 μL each) on sterile polystyrene plates (Corning, 3788). Compounds and ceftazidime dilutions were prepared in DMSO and spotted (1 μL each) on sterile polystyrene plates (Corning, 3788). Log phase bacterial suspensions were adjusted to a final density of 5×10^5 cfu/mL in cation-adjusted Mueller-Hinton broth (Becton-Dickinson) and added to each well (98 μL). Microplates were incubated for 16-20 h at 35° C. in ambient air. The MIC of the compounds was defined as the lowest concentration of said compounds that prevented bacterial growth as read by visual inspection. The MIC of ceftazidime at each compound concentration was defined as the lowest concentration of ceftazidime that prevented bacterial growth as read by visual inspection.

E. cloacae P99 (AmpC) [2] = assay: MIC of compounds alone, broth microdilution; assay type: cell-based; details: strain P99 (E. cloacae)
Outline: (§3)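 Read-out: lowest compound concentration with no growth by visual inspection. CLSI M7-A7 broth microdilution, cation-adjusted Mueller-Hinton broth, inoculum 5×10^5 cfu/mL from log-phase culture, 16-20 h, 35° C, ambient air; compound tested without β-lactam.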

[3] = tested on: E. coli 131119 (TEM-1, OXA-48); assay: MIC of compounds alone, broth microdilution; assay type: cell-based; details: strain 131119 (E. coli)
Outline: as §3

E. coli RGN238 (OXA-1) [4] = assay: MIC of compounds alone, broth microdilution; assay type: cell-based; details: strain RGN238 (E. coli)
Outline: as §3

[5] = tested on: K. pneumoniae 6299 (TEM-1, SHV-11, OXA-163); assay: MIC of compounds alone, broth microdilution; assay type: cell-based; details: strain 6299 (K. pneumoniae)
Outline: as §3

[6] = tested on: E. coli 190317 (TEM-1, SHV-12, CTX-M-15, OXA-1); assay: MIC of compounds alone, broth microdilution; assay type: cell-based; details: strain 190317 (E. coli)
Outline: as §3

[7] = tested on: P. aeruginosa CIP107051 (TEM-24); assay: MIC of compounds alone, broth microdilution; assay type: cell-based; details: strain CIP107051 (P. aeruginosa)
Outline: as §3

[8] = tested on: K. pneumoniae BAA-1898 (TEM-1, SHV-11, SHV-12, KPC-2); assay: MIC of compounds alone, broth microdilution; assay type: cell-based; details: strain BAA-1898 (K. pneumoniae)
Outline: as §3

[9] = target: CMY-37 (Citrobacter freundii); assay: β-lactamase inhibitory activity, determination of IC50 (nitrocefin hydrolysis); assay type: biochemical; details: class (C); nitrocefin 200 μM, 30 min pre-incubation
AmpC (P99) = AmpC (P99) (Enterobacter cloacae, UniProt P05364); assay: as above; details: read-out: IC50 β-lactamase AmpC (P99); class (C); nitrocefin 200 μM, 30 min pre-incubation
OXA-48 = target: T2, OXA-48 (Klebsiella pneumoniae, UniProt Q6XEC0); assay: as above; assay type: biochemical; details: class (D); nitrocefin 200 μM, 30 min pre-incubation; read-out: IC50 β-lactamase OXA-48
T2 construct: made in house; host or cells: E. coli

CTX-M-15 = target: T3, CTX-M-15 (Escherichia coli, UniProt Q9EXV5); assay: as above; assay type: biochemical; details: class (A); nitrocefin 200 μM, 30 min pre-incubation; read-out: IC50 β-lactamase CTX-M-15
T3 construct: made in house; host or cells: E. coli

OXA-1 = target: T4, OXA-1 (Escherichia coli, UniProt P13661); assay: as above; assay type: biochemical; details: class (D); nitrocefin 200 μM, 30 min pre-incubation; read-out: IC50 β-lactamase OXA-1
T4 construct: made in house; host or cells: E. coli

OXA-15 = target: T5, OXA-15 (Pseudomonas aeruginosa, UniProt Q51574); assay: biochemical; details: class (D); nitrocefin 200 μM, 30 min pre-incubation; read-out: IC50 β-lactamase OXA-15
T5 construct: made in house; host or cells: E. coli

TEM-1 = target: T6, TEM-1 (Escherichia coli, UniProt P62593); assay: β-lactamase inhibitory activity, determination of IC50 (nitrocefin hydrolysis); assay type: biochemical; details: class (A); nitrocefin 200 μM, 30 min pre-incubation; read-out: IC50 β-lactamase TEM-1
T6 construct: made in house; host or cells: E. coli

OXA-11 = target: T7, OXA-11 (Pseudomonas aeruginosa, UniProt Q06778); assay: as above; assay type: biochemical; details: class (D); nitrocefin 200 μM, 30 min pre-incubation; read-out: IC50 β-lactamase OXA-11
T7 construct: made in house; host or cells: E. coli

AmpC P. aeruginosa = AmpC P. aeruginosa (Pseudomonas aeruginosa, UniProt P24735); assay: as above; details: read-out: IC50 β-lactamase AmpC (PAE); class (C); nitrocefin 200 μM, 30 min pre-incubation
E. cloacae P99 (AmpC) [10] = assay: MIC of ceftazidime (CAZ) in combination with compounds at 4 μg/mL, broth microdilution; assay type: cell-based; details: strain P99
Experimental: as §1, §2

[11] = tested on: K. pneumoniae 6299 (TEM-1, SHV-11, OXA-163); assay: as above; assay type: cell-based; details: strain 6299
Experimental: as §1, §2

[12] = tested on: P. aeruginosa CIP107051 (TEM-24); assay: as above; assay type: cell-based; details: strain CIP107051
Experimental: as §1, §2

[13] = tested on: K. pneumoniae BAA-1898 (TEM-1, SHV-11, SHV-12, KPC-2); assay: as above; assay type: cell-based; details: strain BAA-1898
Experimental: as §1, §2

KPC-2 = target: T8, KPC-2 (Klebsiella pneumoniae, UniProt Q9F663); assay: β-lactamase inhibitory activity, determination of IC50 (nitrocefin hydrolysis); assay type: biochemical; details: class (A); nitrocefin 200 μM, 30 min pre-incubation; read-out: IC50 β-lactamase KPC-2
T8 construct: made in house; host or cells: E. coli

[14] = tested on: K. pneumoniae UFR68 (TEM-1, SHV-11, CTX-M-15, KPC-3); assay: microbe, parasite or virus in culture; assay type: cell-based; details: Klebsiella pneumoniae, read-out: MIC of CAZ
Experimental: as §1, §2

[15] = tested on: E. coli 131119 (TEM-1, OXA-48); assay: MIC of ceftazidime (CAZ) in combination with compounds at 4 μg/mL, broth microdilution; assay type: cell-based; details: Escherichia coli; strain 131119; CAZ alone, no compound
Experimental: as §1, §2

[16] = tested on: E. cloacae UFR70 (TEM-1, CTX-M-15, CMY-2, OXA-1, Porin loss); assay: as above; assay type: cell-based; details: Enterobacter cloacae, read-out: MIC of CAZ
Experimental: as §1, §2

[17] = tested on: K. pneumoniae UFR39 (CTX-M-15, NDM-1); assay: as above; assay type: cell-based; details: Klebsiella pneumoniae; strain UFR39; CAZ alone, no compound
Experimental: as §1, §2

[18] = tested on: K. pneumoniae 160143 (TEM-1, SHV-1, CTX-M-15, KPC-2, OXA-1); assay: as above; assay type: cell-based; details: Klebsiella pneumoniae; strain 160143; CAZ alone, no compound
Experimental: as §1, §2

[19] = tested on: E. cloacae UFR51 (SHV-12, IMP-8); assay: as above; assay type: cell-based; details: Enterobacter cloacae, read-out: MIC of CAZ
Experimental: as §1, §2

E. coli RGN238 (OXA-1) [20] = assay: as above; assay type: cell-based; details: Escherichia coli; strain RGN238; CAZ alone, no compound
Experimental: as §1, §2

[21] = tested on: K. pneumoniae UFR24 (TEM-1, SHV-2, SHV-11, OXA-1, OXA-48, OXA-47); assay: as above; assay type: cell-based; details: Klebsiella pneumoniae, read-out: MIC of CAZ
Experimental: as §1, §2

[22] = tested on: E. coli UFR32 (TEM-1, VEB-1, OXA-10); assay: as above; assay type: cell-based; details: Escherichia coli, read-out: MIC of CAZ
Experimental: as §1, §2

[23] = tested on: K. oxytoca UFR21 (TEM-1, CTX-M-15, OXA-48); assay: as above; assay type: cell-based; details: Klebsiella oxytoca; strain UFR21; CAZ alone, no compound
Experimental: as §1, §2

[24] = tested on: K. pneumoniae UFR77 (CMY-2); assay: as above; assay type: cell-based; details: Klebsiella pneumoniae; strain UFR77; CAZ alone, no compound
Experimental: as §1, §2

[25] = tested on: E. coli UFR74 (SHV-1, DHA-1); assay: as above; assay type: cell-based; details: Escherichia coli; strain UFR74; CAZ alone, no compound
Experimental: as §1, §2

[26] = tested on: K. pneumoniae 200047 (TEM-1, SHV-32, CTX-M-15, OXA-1); assay: as above; assay type: cell-based; details: Klebsiella pneumoniae; strain 200047; CAZ alone, no compound
Experimental: as §1, §2

[27] = tested on: E. cloacae 260508 (TEM-1, CTX-M-15); assay: as above; assay type: cell-based; details: Enterobacter cloacae; strain 260508; CAZ alone, no compound
Experimental: as §1, §2

[28] = tested on: E. cloacae UFR85 (TEM-1, CTX-M-15, AmpC); assay: as above; assay type: cell-based; details: Enterobacter cloacae; strain UFR85; CAZ alone, no compound
Experimental: as §1, §2

[29] = tested on: E. coli UFR61O (TEM-1, KPC-2); assay: as above; assay type: cell-based; details: Escherichia coli; strain UFR61O; CAZ alone, no compound
Experimental: as §1, §2

[30] = tested on: E. coli UFR18 (CTX-M-15, OXA-204); assay: as above; assay type: cell-based; details: Escherichia coli, read-out: MIC of CAZ
Experimental: as §1, §2

[31] = tested on: E. coli UFR41 (TEM-1, CTX-M-15, CMY-2, OXA-1, NDM-4); assay: as above; assay type: cell-based; details: Escherichia coli, read-out: MIC of CAZ
Experimental: as §1, §2

[32] = MIC of CAZ with compound fixed at 4 μg/mL

Sequence of AmpC P. aeruginosa (P24735 27-397): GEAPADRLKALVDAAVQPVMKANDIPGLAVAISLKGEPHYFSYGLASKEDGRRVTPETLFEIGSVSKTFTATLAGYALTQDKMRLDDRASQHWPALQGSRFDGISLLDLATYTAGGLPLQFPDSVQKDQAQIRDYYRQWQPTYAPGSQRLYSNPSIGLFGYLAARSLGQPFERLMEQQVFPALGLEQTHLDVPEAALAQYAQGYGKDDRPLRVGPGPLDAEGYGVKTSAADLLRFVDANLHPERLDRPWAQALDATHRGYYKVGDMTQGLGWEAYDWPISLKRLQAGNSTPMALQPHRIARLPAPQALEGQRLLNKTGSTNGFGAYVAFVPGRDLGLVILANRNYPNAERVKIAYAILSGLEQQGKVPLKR
T4 sequence (P13661 26-276): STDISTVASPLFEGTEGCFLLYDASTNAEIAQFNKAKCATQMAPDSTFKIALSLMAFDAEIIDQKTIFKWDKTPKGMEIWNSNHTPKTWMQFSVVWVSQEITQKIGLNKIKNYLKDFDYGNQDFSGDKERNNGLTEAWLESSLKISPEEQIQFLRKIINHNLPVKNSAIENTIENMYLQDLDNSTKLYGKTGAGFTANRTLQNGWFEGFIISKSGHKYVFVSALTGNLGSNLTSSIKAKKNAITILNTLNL
T1 sequence (P0AD64 22-286): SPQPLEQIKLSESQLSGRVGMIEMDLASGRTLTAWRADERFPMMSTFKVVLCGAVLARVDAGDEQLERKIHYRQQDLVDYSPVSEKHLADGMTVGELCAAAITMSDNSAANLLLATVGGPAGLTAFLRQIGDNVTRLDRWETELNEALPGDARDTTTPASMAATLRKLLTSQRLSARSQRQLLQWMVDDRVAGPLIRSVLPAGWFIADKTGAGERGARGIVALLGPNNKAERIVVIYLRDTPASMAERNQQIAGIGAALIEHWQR
Sequence of AmpC (P99) (P05364 21-381): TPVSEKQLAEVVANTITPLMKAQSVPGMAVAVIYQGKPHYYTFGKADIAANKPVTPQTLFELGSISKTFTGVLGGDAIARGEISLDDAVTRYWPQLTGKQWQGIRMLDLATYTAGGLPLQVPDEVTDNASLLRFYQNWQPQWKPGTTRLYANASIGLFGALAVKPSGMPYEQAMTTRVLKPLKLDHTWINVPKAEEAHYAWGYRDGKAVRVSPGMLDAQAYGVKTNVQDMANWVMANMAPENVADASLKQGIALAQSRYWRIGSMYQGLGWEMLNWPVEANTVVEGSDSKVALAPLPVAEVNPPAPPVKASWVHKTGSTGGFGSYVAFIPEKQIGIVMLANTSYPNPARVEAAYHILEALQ
T7 sequence (Q06778 21-266): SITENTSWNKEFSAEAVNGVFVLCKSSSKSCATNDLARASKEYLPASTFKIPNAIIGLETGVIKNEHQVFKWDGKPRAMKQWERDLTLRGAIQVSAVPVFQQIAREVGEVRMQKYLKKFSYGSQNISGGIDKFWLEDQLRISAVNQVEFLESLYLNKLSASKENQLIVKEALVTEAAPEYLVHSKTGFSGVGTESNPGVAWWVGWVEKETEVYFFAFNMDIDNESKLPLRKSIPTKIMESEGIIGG
T3 sequence (Q9EXV5 entry or part of it): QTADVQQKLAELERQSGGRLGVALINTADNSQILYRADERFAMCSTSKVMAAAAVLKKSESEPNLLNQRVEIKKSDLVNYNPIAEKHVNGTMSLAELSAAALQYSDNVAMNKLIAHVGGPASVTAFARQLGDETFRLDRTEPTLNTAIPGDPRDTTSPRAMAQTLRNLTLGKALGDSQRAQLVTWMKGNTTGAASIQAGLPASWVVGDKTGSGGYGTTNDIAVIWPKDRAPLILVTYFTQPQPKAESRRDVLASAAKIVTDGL
T8 sequence (Q9F663 25-293 limits assumed): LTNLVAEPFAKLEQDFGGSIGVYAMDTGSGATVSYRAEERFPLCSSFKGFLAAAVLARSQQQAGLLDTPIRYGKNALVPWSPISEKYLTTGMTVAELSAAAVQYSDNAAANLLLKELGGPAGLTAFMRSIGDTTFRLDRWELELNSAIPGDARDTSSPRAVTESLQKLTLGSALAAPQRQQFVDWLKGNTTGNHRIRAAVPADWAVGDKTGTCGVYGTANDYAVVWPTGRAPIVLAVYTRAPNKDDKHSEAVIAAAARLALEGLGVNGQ
Sequence of CMY-37 (Citrobacter freundii) (A0A9R8 21-381): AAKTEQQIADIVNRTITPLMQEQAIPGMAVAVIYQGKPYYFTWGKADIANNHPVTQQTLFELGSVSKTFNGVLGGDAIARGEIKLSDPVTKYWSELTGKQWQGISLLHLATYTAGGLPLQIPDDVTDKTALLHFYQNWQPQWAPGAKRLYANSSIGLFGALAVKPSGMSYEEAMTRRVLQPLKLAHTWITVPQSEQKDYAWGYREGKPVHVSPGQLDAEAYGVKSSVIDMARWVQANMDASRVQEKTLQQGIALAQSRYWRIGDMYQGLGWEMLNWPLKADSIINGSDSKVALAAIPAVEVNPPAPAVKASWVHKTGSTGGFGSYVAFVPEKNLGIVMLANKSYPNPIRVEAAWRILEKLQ
T2 sequence (Q6XEC0 23-265 limits assumed): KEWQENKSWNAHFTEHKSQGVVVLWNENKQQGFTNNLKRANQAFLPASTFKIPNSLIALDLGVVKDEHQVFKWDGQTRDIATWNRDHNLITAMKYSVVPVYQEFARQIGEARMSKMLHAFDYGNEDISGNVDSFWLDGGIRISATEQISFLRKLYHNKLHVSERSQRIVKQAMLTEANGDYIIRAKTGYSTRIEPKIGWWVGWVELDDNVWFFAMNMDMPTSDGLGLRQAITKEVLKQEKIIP
T6 sequence (P62593 24-286 limits assumed): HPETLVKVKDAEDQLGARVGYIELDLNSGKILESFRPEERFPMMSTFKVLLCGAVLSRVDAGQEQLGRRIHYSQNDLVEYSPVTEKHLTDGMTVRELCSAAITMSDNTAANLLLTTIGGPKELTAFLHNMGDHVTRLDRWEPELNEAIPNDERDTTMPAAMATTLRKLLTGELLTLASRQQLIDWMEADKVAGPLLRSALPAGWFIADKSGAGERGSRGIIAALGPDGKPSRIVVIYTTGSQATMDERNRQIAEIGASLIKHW
T5 sequence (Q51574 22-275): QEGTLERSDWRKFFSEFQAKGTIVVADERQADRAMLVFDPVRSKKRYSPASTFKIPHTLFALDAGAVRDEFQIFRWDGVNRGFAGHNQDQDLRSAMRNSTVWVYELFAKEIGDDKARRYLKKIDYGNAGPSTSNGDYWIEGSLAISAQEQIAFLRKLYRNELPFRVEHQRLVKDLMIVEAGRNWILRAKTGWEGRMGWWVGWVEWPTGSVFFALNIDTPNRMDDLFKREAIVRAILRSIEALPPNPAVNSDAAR

COC(=O)c1ncsc1C1=CCN2CC1N(OS(=O)(=O)[O-])C2=O.[Na+] (stereo not shown) [Example 22, Sodium [4-(4-(2-methoxy-2-oxo-methyl)-thiazol-5-yl)-7-oxo-1,6-diazabicyclo[3.2.1]oct-3-en-6-yl] sulfate]
IC50 (SHV-1): 19 nM
MIC combination of CAZ and compounds of the invention at 4 μg/mL [1, 32]: 16 µg/mL
MIC compounds of the invention alone (E. cloacae P99 (AmpC) [2]): >32 µg/mL
MIC compounds of the invention alone [3]: >32 µg/mL
MIC compounds of the invention alone (E. coli RGN238 (OXA-1) [4]): >32 µg/mL
MIC compounds of the invention alone [5]: >32 µg/mL
MIC compounds of the invention alone [6]: >32 µg/mL
MIC compounds of the invention alone [7]: >32 µg/mL
MIC compounds of the invention alone [8]: >32 µg/mL
IC50 [9]: 84 nM
IC50 (AmpC (P99)): 160 nM
IC50 (OXA-48): 3.9 nM
IC50 (CTX-M-15): 6.5 nM
IC50 (OXA-1): 68 nM
IC50 (OXA-15): 12 nM
IC50 (TEM-1): 5 nM
IC50 (OXA-11): 370 nM
IC50 (AmpC P. aeruginosa): 5500 nM
MIC combination of CAZ and compounds of the invention at 4 μg/mL (E. cloacae P99 (AmpC) [10]; [32]): 128 µg/mL
MIC combination of CAZ and compounds of the invention at 4 μg/mL [11, 32]: 128 µg/mL
MIC combination of CAZ and compounds of the invention at 4 μg/mL [12, 32]: >128 µg/mL
MIC combination of CAZ and compounds of the invention at 4 μg/mL [13, 32]: 128 µg/mL
IC50 (KPC-2): 340 nM

CC(C)(O/N=C(\C(=O)N[C@@H]1C(=O)N2C(C(=O)[O-])=C(C[n+]3ccccc3)CS[C@H]12)c1csc(N)n1)C(=O)O [ceftazidime]
MIC [14]: > 128 µg/mL
MIC ([1]; Escherichia coli, CAZ alone, no compound): 128 µg/mL
MIC (E. cloacae P99 (AmpC) [10]; Enterobacter cloacae, CAZ alone, no compound): 128 µg/mL
MIC [15]: 0.5 µg/mL
MIC [16]: > 128 µg/mL
MIC [17]: > 1020 µg/mL
MIC [18]: 128 µg/mL
MIC [19]: > 128 µg/mL
MIC (E. coli RGN238 (OXA-1) [20]): 0.5 µg/mL
MIC [21]: > 128 µg/mL
MIC [22]: > 128 µg/mL
MIC ([11]; Klebsiella pneumoniae, CAZ alone, no compound): 256 µg/mL
MIC [23]: 128 µg/mL
MIC [24]: 64 µg/mL
MIC [25]: 64 µg/mL
MIC [26]: 128 µg/mL
MIC [27]: 128 µg/mL
MIC ([12]; Pseudomonas aeruginosa, CAZ alone, no compound): 256 µg/mL
MIC [28]: 128 µg/mL
MIC ([13]; Klebsiella pneumoniae, BAA1898, CAZ alone, no compound): 256 µg/mL
MIC [29]: 128 µg/mL
MIC [30]: > 128 µg/mL
MIC [31]: > 128 µg/mL
